“And” between values parts separate entries of the source, which are not always exact repeats. Equal entries are not always repeated. Where two headings read alike, the source gives them in different places.
Experiments:
[1] = tested on: toxicologically relevant rat genes (rat CT array); settings: rat, in vivo
[2] = tested on: Sprague Dawley rats; settings: rat, in vivo; for Liver Necrosis / Score (histopathology liver necrosis severity score): ip
In short: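 Toxicity calls (necrosis present or absent at 72 h) and histopathology scores were correlated with tissue gene expression from Crl:CD Sprague Dawley rats. Animals, usually 3 treated with compound by i.p. route and 3 given vehicle, were killed at 6, 24 or 72 h and tissues frozen immediately in liquid nitrogen.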

O=P1(N(CCCl)CCCl)NCCCO1 (centres unmarked) [cyclophosphamide]
3-hydroxyisobutyrate dehydrogenase expression [1]: 0.9805 and 0.7489 and 0.9559 and 1.069 | 14-3-3 zeta expression [1]: 1.184 and 1.14 and 0.9397 and 1.393 and 1.097 and 1.241 and 0.8233 and 0.7916 | 60S ribosomal protein L6 expression [1]: 0.9039 and 0.9014 and 0.8838 and 1.028 and 0.8728 and 0.8315 | ATPase inhibitor (rat mitochondrial IF1 protein) expression [1]: 0.7509 and 0.9233 and 0.8847 and 0.6961 and 0.9379 and 0.8829 and 0.8577 and 0.9897 | Adenine nucleotide translocator 1 expression [1]: 0.9086 and 0.7561 and 1.167 | Aflatoxin B1 aldehyde reductase expression [1]: 0.6743 and 0.8573 and 0.9459 and 0.6588 and 0.7015 | Alpha-1 microglobulin/bikunin precursor (Ambp) expression [1]: 1.017 and 0.5993 and 0.8086 | Alpha-2-macroglobulin expression [1]: 0.846 and 0.9185 and 0.7109 and 1.376 and 0.7513 | Alpha-2-macroglobulin, sequence 2 expression [1]: 0.9485 and 1.095 and 1.193 | Alpha-prothymosin expression [1]: 0.6454 and 0.6204 | Alpha-tubulin expression [1]: 1.198 and 0.7656 and 0.8189 | Annexin V expression [1]: 1.206 and 1.05 and 1.01 | Apolipoprotein All expression [1]: 0.9781 and 0.8882 and 0.8841 | Apolipoprotein C1 expression [1]: 0.9407 and 0.9263 and 1.074 | Apolipoprotein CIII expression [1]: 0.9783 and 0.6934 and 0.9372 | Aquaporin-3 (AQP3) expression [1]: 0.9643 and 0.9481 and 0.9808 | Arginosuccinate synthetase 1 expression [1]: 1.222 and 0.8241 and 1.258 | Bax (alpha) expression [1]: 1.239 and 1.237 and 1.357 and 1.269 and 0.9338 | Beta-actin, sequence 2 expression [1]: 1.01 and 0.7994 and 0.7978 | Beta-tubulin, class I expression [1]: 0.6539 and 0.688 | Betaine homocysteine methyltransferase (BHMT) expression [1]: 0.479 and 0.46 and 0.7332 | Biliverdin reductase expression [1]: 0.8817 and 0.9203 and 1 | C-reactive protein expression [1]: 1.634 and 0.981 and 1.457 | CDK108 expression [1]: 0.8582 and 0.7188 and 0.8687 | Calpactin I heavy chain expression [1]: 1.229 and 1.24 and 1.238 and 1.077 and 1.066 and 1.019 and 0.9156 | Calpain 2 expression [1]: 0.949 and 0.9377 and 0.9321 | Cathepsin B expression [1]: 0.8937 and 0.8218 and 0.8443 | Cathepsin S expression [1]: 1.022 and 1.151 | Cofilin expression [1]: 1.007 and 0.8938 and 0.9356 | Collagen type II expression [1]: 0.9485 and 0.8839 and 0.6238 | Contrapsin-like protease inhibitor (CPi-21) expression [1]: 1.085 and 0.6397 and 0.8351 | Cyclin D1 expression [1]: 0.8933 and 1.39 | Cystatin C expression [1]: 0.9711 and 1.107 and 0.9417 | Dynamin-1 (D100) expression [1]: 0.9779 and 1.159 and 1.053 and 0.8876 and 0.9989 and 0.9805 and 0.8392 and 0.9019 | Elongation factor-1 alpha expression [1]: 1.136 and 0.9264 | Epidermal growth factor expression [1]: 1.068 and 1.046 (2×) and 0.855 and 1.03 | F1-ATPase beta subunit expression [1]: 0.9746 and 0.7787 and 0.8888 | Fas antigen expression [1]: 1.289 and 1.407 and 0.9112 and 1.614 and 1.141 | Fatty acid synthase expression [1]: 0.8145 and 0.6404 and 0.4288 | Gadd45 expression [1]: 0.951 and 0.9302 and 1.226 and 0.8099 and 0.9252 | Gadd153 expression [1]: 1.107 and 1.088 and 1.217 and 1.23 and 1.048 | Glutathione S-transferase theta-1 expression [1]: 1.063 and 0.5752 and 0.7421 | Heme oxygenase expression [1]: 0.9535 and 0.8807 and 1.153 and 0.8353 and 0.9394 and 1.116 and 1.353 and 1.508 | High affinity IgE receptor gamma chain (FcERIgamma) expression [1]: 0.8735 and 0.8896 and 0.9764 | Hypoxanthine-guanine phosphoribosyltransferase expression [1]: 0.9194 and 0.7728 and 0.8641 | ID-1 expression [1]: 1.442 and 1.187 and 1.516 and 0.9754 and 1.354 | IgE binding protein expression [1]: 0.8797 | Integrin beta1 expression [1]: 1.174 and 0.9675 and 1.666 and 0.9992 | Interleukin-18 expression [1]: 0.9442 and 1.131 | JNK1 stress activated protein kinase expression [1]: 1.083 and 1.357 | L-gulono-gamma-lactone oxidase expression [1]: 0.9031 and 1.152 and 0.724 and 0.7478 and 0.9085 | Lecithin: cholesterol acyltransferase expression [1]: 1.164 and 0.8942 and 0.9655 | Matrin F/G expression [1]: 1.192 and 0.8718 and 1.349 and 1.163 | Melanoma-associated antigen ME491 expression [1]: 0.8571 and 0.8832 and 0.9165 | Monocyte chemotactic protein receptor (CCR2) expression [1]: 0.9135 and 0.9294 and 1.707 and 0.9161 and 1.021 | Multidrug resistant protein-1 expression [1]: 1.07 and 0.9469 and 1.398 | Multidrug resistant protein-2 expression [1]: 1.024 and 1.129 and 1.355 | NADP-dependent isocitrate dehydrogenase, cytosolic expression [1]: 0.8988 and 1.062 | NIPK expression [1]: 1.292 and 0.8721 | Nucleoside diphosphate kinase beta isoform expression [1]: 0.9788 and 0.8819 and 0.9694 | Organic anion transporter 3 expression [1]: 1.199 and 1.24 and 0.8444 and 0.9666 | Organic cation transporter 3 expression [1]: 0.9369 and 0.9031 and 0.9971 and 1.049 and 1.006 and 0.9297 and 0.8878 | Ornithine decarboxylase expression [1]: 1.176 and 1.138 and 1.239 and 1.627 and 1.232 and 1.15 and 0.9487 and 1.103 | Osteoactivin expression [1]: 1.044 and 1.068 and 1.102 | PAR interacting protein expression [1]: 0.9853 and 0.8819 and 1.001 and 0.9074 and 0.8501 | Phase-1 RCT-15 expression [1]: 1.548 | Phase-1 RCT-24 expression [1]: 0.8922 | Phase-1 RCT-33 expression [1]: 0.9894 and 0.9036 and 0.7825 and 0.5992 | Phase-1 RCT-36 expression [1]: 0.8405 and 0.8638 and 0.7841 | Phase-1 RCT-38 expression [1]: 0.6634 | Phase-1 RCT-39 expression [1]: 1.102 and 0.8162 | Phase-1 RCT-40 expression [1]: 0.9476 and 0.7827 and 0.6627 and 0.9191 | Phase-1 RCT-43 expression [1]: 1.413 | Phase-1 RCT-48 expression [1]: 0.7872 | Phase-1 RCT-49 expression [1]: 0.9994 | Phase-1 RCT-50 expression [1]: 1.001 and 0.9172 | Phase-1 RCT-57 expression [1]: 1 | Phase-1 RCT-58 expression [1]: 0.9564 | Phase-1 RCT-61 expression [1]: 0.956 and 0.9001 | Phase-1 RCT-65 expression [1]: 1.662 | Phase-1 RCT-68 expression [1]: 1.562 | Phase-1 RCT-78 expression [1]: 0.8268 | Phase-1 RCT-81 expression [1]: 0.9793 | Phase-1 RCT-88 expression [1]: 0.7545 and 0.7728 and 0.8998 and 0.9204 | Phase-1 RCT-89 expression [1]: 0.8326 | Phase-1 RCT-92 expression [1]: 0.7803 and 0.7782 | Phase-1 RCT-117 expression [1]: 0.9098 | Phase-1 RCT-121 expression [1]: 0.9382 | Phase-1 RCT-123 expression [1]: 0.8497 | Phase-1 RCT-128 expression [1]: 0.7223 | Phase-1 RCT-137 expression [1]: 0.7713 | Phase-1 RCT-138 expression [1]: 0.9171 | Phase-1 RCT-144 expression [1]: 0.8012 and 0.9797 and 0.8356 | Phase-1 RCT-146 expression [1]: 0.8995 | Phase-1 RCT-149 expression [1]: 1.199 | Phase-1 RCT-152 expression [1]: 0.9267 and 0.8689 | Phase-1 RCT-154 expression [1]: 0.9702 | Phase-1 RCT-156 expression [1]: 1.626 | Phase-1 RCT-164 expression [1]: 1.443 and 0.9271 | Phase-1 RCT-179 expression [1]: 0.9473 and 0.8452 and 0.9271 | Phase-1 RCT-180 expression [1]: 0.9312 and 0.9629 | Phase-1 RCT-182 expression [1]: 0.7286 and 0.6249 and 0.7487 and 1.104 | Phase-1 RCT-189 expression [1]: 1.097 and 0.7075 and 0.8923 | Phase-1 RCT-192 expression [1]: 1.102 | Phase-1 RCT-207 expression [1]: 0.9999 and 1.403 and 0.9634 and 0.8151 | Phase-1 RCT-211 expression [1]: 1.001 | Phase-1 RCT-213 expression [1]: 0.9194 and 0.9272 | Phase-1 RCT-227 expression [1]: 0.8544 and 0.7558 | Phase-1 RCT-230 expression [1]: 0.8887 | Phase-1 RCT-241 expression [1]: 0.9823 | Phase-1 RCT-258 expression [1]: 1.294 and 1.004 and 1.001 | Phase-1 RCT-260 expression [1]: 0.9269 | Phase-1 RCT-264 expression [1]: 0.7874 | Phase-1 RCT-270 expression [1]: 0.9664 and 0.6832 | Phase-1 RCT-271 expression [1]: 0.642 and 0.7477 | Phase-1 RCT-288 expression [1]: 0.8319 and 0.9535 | Phase-1 RCT-290 expression [1]: 0.6874 and 0.7078 and 0.8375 | Phase-1 RCT-291 expression [1]: 1 and 0.8077 and 0.9279 | Phase-1 RCT-292 expression [1]: 0.8838 | Poly(ADP-ribose) polymerase expression [1]: 0.9399 and 0.8855 and 1.07 | Presenilin-1 expression [1]: 0.6993 and 0.8827 and 0.7827 | Proliferating cell nuclear antigen gene expression [1]: 0.8773 and 0.9599 and 1 | Protein tyrosine phosphatase, receptor type, D expression [1]: 1.351 and 1.117 | Pyruvate kinase, muscle expression [1]: 0.9707 and 1.019 and 0.8026 | Retinol dehydrogenase type III expression [1]: 1.384 and 0.6954 and 0.7914 | Ribosomal protein S8 expression [1]: 0.9951 and 0.8646 and 0.9055 | Ribosomal protein S17 expression [1]: 0.973 and 0.9247 and 0.8883 and 1.41 and 1.034 and 0.9413 | Stathmin expression [1]: 1.012 and 1.005 and 0.8767 | Thioredoxin-1 (Trx1) expression [1]: 0.9618 and 0.9127 and 0.8599 | Thymidylate synthase expression [1]: 1.077 and 1.121 and 1.142 | Thymosin beta-10 expression [1]: 1.026 and 0.8658 and 0.6552 | Tissue plasminogen activator expression [1]: 0.8917 and 0.8347 and 0.9056 | Transitional endoplasmic reticulum ATPase expression [1]: 0.9095 and 0.8634 and 0.9474 | Transthyretin expression [1]: 0.9173 and 0.9384 and 0.8358 and 0.667 and 1.075 | Ubiquitin conjugating enzyme (RAD 6 homologue) expression [1]: 0.9811 and 1.057 and 0.8291 and 1.341 and 1.041 and 1.145 and 0.8334 and 1.02 | Uncoupling protein 2 expression [1]: 0.8638 and 0.7241 | Zinc finger protein expression [1]: 0.991 and 1.034 and 1.076 and 1.004 and 1.101 and 0.9835 and 1.081 and 1.11 | c-myc expression [1]: 0.9533 (2×) and 0.912 and 1.636 and 0.8965 | p55CDC expression [1]: 0.9412 and 1.059 and 0.9495 | {Phase-1 RCT 98} expression [1]: 0.8899 and 0.9469 | {Ribosomal protein 16} expression [1]: 1.097 and 0.9357 and 0.8372 | Liver Toxicity Necrosis Classification [2]: no | Liver Necrosis ([2]; 25 mg/kg): no | Score (histopathology liver necrosis severity score) ([2]; 25 mg/kg): 1 | Liver Necrosis ([2]; 100 mg/kg): no | Score (histopathology liver necrosis severity score) ([2]; 100 mg/kg): 1
